According to ChEMBL document CHEMBL4364295, “Discovery of a First-in-Class Receptor Interacting Protein 2 (RIP2) Kinase Specific Clinical Candidate, 2-((4-(Benzo[d]thiazol-5-ylamino)-6-(tert-butylsulfonyl)quinazolin-7-yl)oxy)ethyl Dihydrogen Phosphate, for the Treatment of Inflammatory Diseases” (J Med Chem, 2019):
Values belong to the compound of their own block, whether it stands above or below them. Calls of active or inactive are those of the source. The rule behind the calls is not given here.

Columns and labels:
[1] = Prodrug conversion in rat hepatocytes assessed as dephosphorylation at 20 uM measured after 4 hrs; type: ADME, cell-based, Hepatocyte
[2] = Half life in rat blood; type: ADME, tissue-based
[3] = Drug uptake in Beagle dog systemic circulation at 2 mg/kg, po or 0.9 mg/kg, iv by LC/MS/MS analysis; type: ADME, organism-based, Canis lupus familiaris; conditions: in vivo
[4] = Terminal half life in Beagle dog assessed as 2-((4-(Benzo[d]thiazol-5-ylamino)-6-(tert-butylsulfonyl)quinazolin-7-yl)oxy)ethanol level at 2 mg/kg, po or 0.9 mg/kg, iv by LC/MS/MS analysis; type: ADME, organism-based, Canis lupus familiaris; conditions: in vivo
[5] = Prodrug conversion in rat hepatocytes assessed as 2-(4-(benzo[d]thiazol-5-ylamino)-6-(tert-butylsulfonyl)-1,2,3,4-tetrahydroquinazolin-7-yloxy)ethanol formation at 20 uM measured after 4 hrs; type: ADME, cell-based, Hepatocyte
[6] = Prodrug conversion in rat hepatocytes assessed as oxidation at 20 uM measured after 4 hrs; type: ADME, cell-based, Hepatocyte
[7] = Prodrug conversion in rat hepatocytes assessed as 2-(4-(benzo[d]thiazol-5-ylamino)-7-(2-hydroxyethoxy)quinazolin-6-ylsulfonyl)-2-methylpropan-1-ol formation at 20 uM measured after 4 hrs; type: ADME, cell-based, Hepatocyte
[8] = Cmax in Sprague-Dawley rat assessed as 2-((4-(Benzo[d]thiazol-5-ylamino)-6-(tert-butylsulfonyl)quinazolin-7-yl)oxy)ethanol level at 2 mg/kg, po by LC/MS/MS analysis; type: ADME, organism-based; parameters: dose 2 mg/kg, route oral; conditions: in vivo
[9] = Prodrug conversion in Sprague-Dawley rat hepatic portal vein assessed as 2-((4-(Benzo[d]thiazol-5-ylamino)-6-(tert-butylsulfonyl)quinazolin-7-yl)oxy)ethanol formation; type: ADME; conditions: in vivo
[10] = Prodrug conversion in human hepatocytes assessed as (2S,3S,4S,5R,6R)-6-(2-(4-(benzo[d]thiazol-5-ylamino)-6-(tert-butylsulfonyl)quinazolin-7-yloxy)ethoxy)-3,4,5-trihydroxytetrahydro-2H-pyran-2-carboxylic acid formation at 20 uM measured after 4 hrs; type: ADME, cell-based, Hepatocyte
[11] = Prodrug conversion in human hepatocytes assessed as 2-((4-(Benzo[d]thiazol-5-ylamino)-6-(tert-butylsulfonyl)quinazolin-7-yl)oxy)ethanol formation at 20 uM measured after 4 hrs; type: ADME, cell-based, Hepatocyte
[12] = Prodrug conversion in minipig hepatocytes assessed as 2-(4-(benzo[d]thiazol-5-ylamino)-7-(2-hydroxyethoxy)quinazolin-6-ylsulfonyl)-2-methylpropan-1-ol formation at 20 uM measured after 4 hrs; type: ADME, cell-based, Sus scrofa, Hepatocyte; conditions: pig
Cricetinae = test: Displacement of [125I]2-iodomelatonin from hamster MT3 receptor at 10 uM measured after 60 mins by scintillation counting method
Toll-like receptor 4 = Toll-like receptor 4 (Homo sapiens, UniProt O00206); test: Inhibition of TLR4 in human monocytes assessed as reduction in LPS-induced TNFalpha production; type: cell-based
Toll-like receptor 4, sequence (O00206 whole entry): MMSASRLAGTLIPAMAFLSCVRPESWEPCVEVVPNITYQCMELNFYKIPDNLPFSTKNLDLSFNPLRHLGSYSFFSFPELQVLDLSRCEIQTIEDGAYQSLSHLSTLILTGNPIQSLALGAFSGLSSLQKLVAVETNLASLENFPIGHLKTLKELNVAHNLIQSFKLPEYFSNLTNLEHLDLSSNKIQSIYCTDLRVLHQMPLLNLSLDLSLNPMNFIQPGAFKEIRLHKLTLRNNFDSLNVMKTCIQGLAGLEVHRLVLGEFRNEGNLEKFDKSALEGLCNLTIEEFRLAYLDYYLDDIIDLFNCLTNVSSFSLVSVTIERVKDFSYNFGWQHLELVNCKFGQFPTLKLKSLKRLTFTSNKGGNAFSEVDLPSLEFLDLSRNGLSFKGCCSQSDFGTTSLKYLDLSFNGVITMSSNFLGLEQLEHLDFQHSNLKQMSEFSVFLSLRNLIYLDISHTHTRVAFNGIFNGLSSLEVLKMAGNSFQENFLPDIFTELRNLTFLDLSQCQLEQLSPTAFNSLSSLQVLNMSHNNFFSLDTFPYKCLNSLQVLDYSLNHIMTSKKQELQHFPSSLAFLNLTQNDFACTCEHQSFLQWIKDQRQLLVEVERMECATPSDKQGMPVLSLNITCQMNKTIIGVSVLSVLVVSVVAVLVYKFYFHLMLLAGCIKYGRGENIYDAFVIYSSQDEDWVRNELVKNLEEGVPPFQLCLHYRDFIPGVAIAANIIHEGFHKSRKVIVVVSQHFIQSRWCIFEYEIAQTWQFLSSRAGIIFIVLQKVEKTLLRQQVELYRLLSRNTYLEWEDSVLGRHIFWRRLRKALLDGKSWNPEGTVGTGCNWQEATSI

[13] = Unbound fraction in human blood; type: ADME, tissue-based
[14] = target: T1, Ephrin type-A receptor 6 (Homo sapiens) (UniProt Q9UF33); test: Inhibition of human EPHA6 at 1 uM using poly[Glu:Tyr] (4:1) as substrate in presence of [gamma-33P]ATP relative to control
T1 sequence (whole entry): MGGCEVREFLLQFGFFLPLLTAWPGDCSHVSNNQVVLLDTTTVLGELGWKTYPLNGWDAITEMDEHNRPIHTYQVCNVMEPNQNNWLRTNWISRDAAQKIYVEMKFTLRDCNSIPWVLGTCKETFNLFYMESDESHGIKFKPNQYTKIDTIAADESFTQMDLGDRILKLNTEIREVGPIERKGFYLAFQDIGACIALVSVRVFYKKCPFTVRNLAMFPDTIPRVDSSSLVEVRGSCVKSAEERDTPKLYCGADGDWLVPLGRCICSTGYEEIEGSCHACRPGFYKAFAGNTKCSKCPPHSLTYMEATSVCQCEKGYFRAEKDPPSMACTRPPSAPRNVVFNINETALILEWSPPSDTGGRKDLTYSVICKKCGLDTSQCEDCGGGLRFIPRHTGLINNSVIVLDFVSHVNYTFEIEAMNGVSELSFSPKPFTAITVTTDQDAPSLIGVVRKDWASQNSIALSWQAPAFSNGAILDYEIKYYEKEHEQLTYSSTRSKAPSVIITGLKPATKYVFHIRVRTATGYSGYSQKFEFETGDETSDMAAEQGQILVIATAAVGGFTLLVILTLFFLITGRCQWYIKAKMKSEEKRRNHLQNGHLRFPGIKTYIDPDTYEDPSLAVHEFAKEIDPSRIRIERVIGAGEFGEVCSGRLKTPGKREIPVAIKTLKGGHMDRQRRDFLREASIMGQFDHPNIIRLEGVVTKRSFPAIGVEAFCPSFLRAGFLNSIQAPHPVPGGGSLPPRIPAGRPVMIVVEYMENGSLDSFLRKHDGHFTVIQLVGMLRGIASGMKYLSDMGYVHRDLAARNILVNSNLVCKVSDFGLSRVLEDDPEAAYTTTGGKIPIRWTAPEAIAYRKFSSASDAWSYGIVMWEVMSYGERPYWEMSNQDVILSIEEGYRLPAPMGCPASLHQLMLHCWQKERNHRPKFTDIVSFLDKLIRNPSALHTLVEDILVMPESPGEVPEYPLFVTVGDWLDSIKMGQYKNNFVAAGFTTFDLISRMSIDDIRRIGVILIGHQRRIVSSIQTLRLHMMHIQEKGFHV

[15] = AUC in Sprague-Dawley rat at 2 mg/kg, po by LC/MS/MS analysis; type: ADME, organism-based; conditions: in vivo
[16] = Cmax in Sprague-Dawley rat at 60 mg/kg, po using crystalline sample during 7 day dose ranging study by LC/MS/MS analysis; type: ADME, organism-based; parameters: dose 60 mg/kg, route oral; conditions: in vivo
[17] = Volume of distribution at steady state in Beagle dog at 2 mg/kg, po or 1.1 mg/kg, iv by LC/MS/MS analysis; type: ADME, organism-based, Canis lupus familiaris; conditions: in vivo, read-out: Vdss
[18] = target: T2, Interleukin-1 receptor type 1 (Homo sapiens, UniProt P14778); test: Inhibition of IL1R in human monocytes assessed as reduction in IL1beta-induced TNFalpha production; type: cell-based
T2 sequence (P14778 whole entry): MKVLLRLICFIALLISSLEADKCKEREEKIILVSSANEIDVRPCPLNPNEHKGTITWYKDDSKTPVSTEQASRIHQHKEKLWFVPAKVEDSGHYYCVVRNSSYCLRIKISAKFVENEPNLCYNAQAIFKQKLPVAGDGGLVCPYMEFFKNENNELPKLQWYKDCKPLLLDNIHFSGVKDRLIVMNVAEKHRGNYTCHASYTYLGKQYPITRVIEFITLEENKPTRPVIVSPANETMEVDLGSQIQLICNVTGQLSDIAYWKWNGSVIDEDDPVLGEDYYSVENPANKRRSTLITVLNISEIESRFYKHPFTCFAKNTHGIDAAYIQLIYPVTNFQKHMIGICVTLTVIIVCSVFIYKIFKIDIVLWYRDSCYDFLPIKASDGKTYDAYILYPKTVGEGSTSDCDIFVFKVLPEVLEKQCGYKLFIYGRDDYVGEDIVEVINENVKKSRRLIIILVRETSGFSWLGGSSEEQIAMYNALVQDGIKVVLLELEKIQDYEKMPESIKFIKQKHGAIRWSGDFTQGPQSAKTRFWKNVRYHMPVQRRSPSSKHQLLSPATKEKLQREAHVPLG

[19] = Clearance in human hepatocytes; type: ADME, cell-based, Hepatocyte

Drug metabolism [1]: Metabolite_Detected
half-life [2]: 35 min
Drug uptake [3]: Not Active
beta t1/2 [4]: 174 min
Drug metabolism [5]: Metabolite_Detected
Drug metabolism [6]: Metabolite_Detected
Drug metabolism [7]: Metabolite_Detected
Cmax [8]: 170 ng/mL
Drug metabolism [9]: Metabolite_Detected
Drug metabolism [10]: Metabolite_Detected
Drug metabolism [11]: Metabolite_Detected
Drug metabolism [12]: Metabolite_Detected
SMILES: CC(C)(C)S(=O)(=O)c1cc2c(Nc3ccc4scnc4c3)ncnc2cc1OCCOP(=O)(O)O.[CaH2]

inhibition (Cricetinae): Active
IC50 (Toll-like receptor 4): > 10 µM
fraction unbound [13]: 0.069
inhibition [14]: 70 to 90%
AUC [15]: 460 ng·h/mL
Cmax [16]: 2100 ng/mL
Vd [17]: 2.6 L/kg
IC50 [18]: > 10 µM
CLH [19]: < 0.48 mL/min/g
SMILES: CC(C)(C)S(=O)(=O)c1cc2c(Nc3ccc4scnc4c3)ncnc2cc1OCCO
